From PubChem BioAssay (NCI)
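Briefly, cells in 96-well plates were exposed to five compound concentrations for 48 h, and endpoints were estimated by linear interpolation. TGI: concentration producing complete growth inhibition.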

Columns and labels:
Test in all cases: NCI tumour cell line growth inhibition, 48 h
OVCAR-3 ovarian = test system: OVCAR-3 ovarian
SNB-19 CNS = test system: SNB-19 CNS
NCI-H460 lung = test system: NCI-H460 lung
HCT-116 colon = test system: HCT-116 colon
EKVX NSCLC = test system: EKVX NSCLC
RPMI-8226 leukemia = test system: RPMI-8226 leukemia
HT29 colon = test system: HT29 colon
CAKI-1 renal = test system: CAKI-1 renal
IGROV1 ovarian = test system: IGROV1 ovarian
MALME-3M melanoma = test system: MALME-3M melanoma

Structure (SMILES) | TGI (OVCAR-3 ovarian) [µM] | TGI (SNB-19 CNS) [µM] | TGI (NCI-H460 lung) [µM] | TGI (HCT-116 colon) [µM] | TGI (EKVX NSCLC) [µM] | TGI (RPMI-8226 leukemia) [µM] | TGI (HT29 colon) [µM] | TGI (CAKI-1 renal) [µM] | TGI (IGROV1 ovarian) [µM] | TGI (MALME-3M melanoma) [µM]
CC1(C)N=C(N)N=C(N)N1c1ccc(CCCCc2ccc(Cl)cc2Cl)cc1 | 5.5 | 11 | 2.48 | 15.1 | 45.1 | 19.2 | 13 | 9.08 | 10 | 16.8
CC(=O)/C=C/c1c[nH]c(=O)[nH]c1=O | 608 | 903 | 613 | 388 | 570 | 679 | 847 | 178 | 861 | 444
NNC(=O)CCCCCCCC(=O)O | > 100 | > 100 | > 100 | > 100 | > 100 | > 100 | > 100 | > 100 | > 100 | > 100
Cn1c2c(c3ccccc31)CC(=O)N1CCCCC1C21OCCO1 (stereo not given) | > 100 | > 100 | > 100 | > 100 | > 100 | > 100 | > 100 | > 100 | > 100 | > 100
COC(=O)c1ccc(NCC2=CC(=O)c3ccccc3C2=O)cc1 | 26.7 | 99.7 | 35.6 | 35.3 | 66.5 | > 26.5 | > 76.4 | 28 | 30.2 | 19.9
